Measurements as given in ChEMBL document CHEMBL5143670, “Discovery and preclinical profile of LX-039, a novel indole-based oral selective estrogen receptor degrader (SERD)” (Bioorg Med Chem Lett, 2022).

Assays:
[1] = Binding affinity to estrogen receptor (unknown origin); set-up: species or system Homo sapiens
[2] = AUC (0 to 24 hrs) in CD-1 mouse at 2.5 mg/kg, po; format: ADME, organism-based; set-up: time < 24 hr, dose 2.5 mg/kg, route po; details: in vivo; for AUC(0-t) at 24 h: CD-1, mouse
[3] = Volume of distribution in iv dosed CD-1 mouse; format: ADME, organism-based; details: in vivo
[4] = Induction of estrogen receptor degradation in human MCF7 cells incubated for 4 hrs by in-cell Western assay; format: cell-based; details: MCF7, 4 h
[5] = Clearance in iv dosed CD-1 mouse; format: ADME, organism-based; details: in vivo
[6] = tested on: MCF7; experiment: Antiproliferative activity against human MCF7 cells measured after 5 days by CellTiter-GLo luminescent assay; format: functional, cell-based; details: MCF7, 120 h
[7] = Cmax in CD-1 mouse at 2.5 mg/kg, po; format: ADME, organism-based; set-up: dose 2.5 mg/kg, route po; details: in vivo
[8] = Oral bioavailability in CD-1 mouse at 2.5 mg/kg; format: ADME, organism-based; details: in vivo; for bioavailability: CD-1, mouse
[9] = tested on: MCF7; experiment: Antitumor activity against tamoxifen-resistant human MCF7 cells xenografted in mouse assessed as tumor growth inhibition at 3 mg, po dosed once daily for 21 days relative to control; format: functional; details: time 21 day
[10] = Toxicity in mouse xenografted with human MCF7 cells assessed as body weight change at 20 mg/kg, po administered once daily for 21 days; format: organism-based; details: in vivo, 504 h, time 21 day
[11] = In vivo antagonist activity at estrogen receptor in immature CD-IGS rat assessed as inhibition of estradiol-induced uterine growth by measuring uterine wet weight pretreated with compound for 15 mins followed by estradiol addition administered orally for three days and measured on day 4 relative to control; format: functional; details: route po; time 4 day
[12] = tested on: MCF7; experiment: Antitumor activity against human MCF7 cells xenografted in mouse assessed as tumor growth inhibition when administered orally once daily for 21 days; format: functional, cell-based; details: dose 6.5-60 mg/kg, route po, time 21.0 day, DDE = dose-dependent effect
[13] = Oral bioavailability in Sprague-Dawley rat at 1 mg/kg; format: ADME, organism-based; details: in vivo
[14] = target: Cytochrome P450 3A4 (Homo sapiens, UniProt P08684); experiment: Inhibition of CYP3A4 (unknown origin) using testosterone as substrate; format: ADME
[15] = Volume of distribution in iv dosed Beagle dog; format: ADME, organism-based, Canis lupus familiaris; details: in vivo
[16] = Clearance in iv dosed Sprague-Dawley rat; format: ADME, organism-based; details: in vivo
[17] = target: Cytochrome P450 2C19 (Homo sapiens, UniProt P33261); experiment: Inhibition of CYP2C19 (unknown origin); format: ADME
[18] = Oral bioavailability in Beagle dog at 1 mg/kg; format: ADME, organism-based, Canis lupus familiaris; details: in vivo
[19] = Permeability of the compound from apical to basolateral side in human Caco-2 cells; format: ADME, cell-based; details: read-out: permeability
[20] = AUC (0 to 24 hrs) in Beagle dog at 1 mg/kg, iv; format: ADME, organism-based, Canis lupus familiaris; set-up: time < 24 hr, dose 1 mg/kg, route iv; details: in vivo
[21] = Toxicity in Sprague-Dawley rat assessed as adverse effects at 500 mg/kg, po; format: organism-based; details: in vivo
[22] = Cmax in Sprague-Dawley rat at 1 mg/kg, po; format: ADME, organism-based; set-up: dose 1 mg/kg, route po; details: in vivo
[23] = target: T1, Cytochrome P450 1A2 (Homo sapiens, UniProt P05177); experiment: Inhibition of CYP1A2 (unknown origin); format: ADME
T1 sequence (P05177 whole entry): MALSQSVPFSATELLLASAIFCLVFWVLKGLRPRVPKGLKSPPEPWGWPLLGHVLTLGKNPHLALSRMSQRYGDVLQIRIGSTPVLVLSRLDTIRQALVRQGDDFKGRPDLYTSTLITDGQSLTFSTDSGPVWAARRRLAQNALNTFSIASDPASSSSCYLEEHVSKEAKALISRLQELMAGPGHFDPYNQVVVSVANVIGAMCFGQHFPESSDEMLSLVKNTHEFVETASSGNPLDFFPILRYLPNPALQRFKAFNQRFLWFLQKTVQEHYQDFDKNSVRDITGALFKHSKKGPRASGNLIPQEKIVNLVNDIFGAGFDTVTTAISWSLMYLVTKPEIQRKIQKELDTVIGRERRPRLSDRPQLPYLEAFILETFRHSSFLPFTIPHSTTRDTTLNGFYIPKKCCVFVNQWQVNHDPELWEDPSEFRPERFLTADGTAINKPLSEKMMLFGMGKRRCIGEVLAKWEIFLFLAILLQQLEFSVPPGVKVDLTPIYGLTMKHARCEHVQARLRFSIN

[24] = C0 in Sprague-Dawley rat at 1 mg/kg, iv; format: ADME, organism-based; details: in vivo
[25] = tested on: MCF7; experiment: Antitumor activity against tamoxifen-resistant human MCF7 cells xenografted in mouse assessed as tumor growth inhibition at 200 mg/kg, po dosed once daily for 21 days relative to control; format: functional; details: MCF7, 504 h, time 21 day, read-out: TGI
[26] = Protein binding in human plasma assessed as free fraction; format: ADME, cell-free
[27] = Toxicity in mouse xenografted with human MCF7 cells assessed as change in body weight at 6.5 to 60 mg/kg, po administered once daily for 21 days; format: organism-based; details: in vivo, 504 h, dose 6.5-60 mg/kg, time 21 day
[28] = Volume of distribution in iv dosed Sprague-Dawley rat; format: ADME, organism-based; details: in vivo
[29] = Toxicity in Beagle dog assessed as adverse effects at 1000 mg/kg, po; format: organism-based, Canis lupus familiaris; details: in vivo
[30] = C0 in Beagle dog at 1 mg/kg, iv; format: ADME, organism-based, Canis lupus familiaris; details: in vivo
[31] = Permeability of the compound from basolateral to apical side in human Caco-2 cells; format: ADME, cell-based; details: read-out: permeability
[32] = tested on: MCF7; experiment: Antitumor activity against human MCF7 cells xenografted in mouse assessed as tumor shrinkage by measuring tumor growth inhibition at 60 mg/kg, po administered once daily for 21 days; format: functional; details: MCF7, 504 h, time 21 day, read-out: TGI
[33] = Clearance in iv dosed Beagle dog; format: ADME, organism-based, Canis lupus familiaris; details: in vivo
[34] = Metabolic stability in rat hepatocytes assessed as intrinsic clearance measured per million cells; format: ADME, cell-based, Hepatocyte; details: read-out: CLH
[35] = AUC (0 to 24 hrs) in Sprague-Dawley rat at 1 mg/kg, po; format: ADME, organism-based; set-up: time < 24 hr, dose 1 mg/kg, route po; details: in vivo
[36] = Cmax in Beagle dog at 1 mg/kg, po; format: ADME, organism-based, Canis lupus familiaris; set-up: dose 1 mg/kg, route po; details: in vivo
[37] = Metabolic stability in dog hepatocytes assessed as intrinsic clearance measured per million cells; format: ADME, cell-based, Canis lupus familiaris, Hepatocyte; details: read-out: CLH
[38] = Efflux ratio of apparent permeability from basolateral to apical side over apical to basolateral side in human Caco-2 cells; format: ADME, cell-based
[39] = Metabolic stability in human hepatocytes assessed as intrinsic clearance measured per million cells; format: ADME, cell-based, Hepatocyte; details: read-out: CLH
[40] = Metabolic stability in mouse hepatocyte assessed as intrinsic clearance measured per 10^6 cells; format: ADME, cell-based; details: hepatocytes, read-out: CLH
[41] = AUC (0 to 24 hrs) in Beagle dog at 1 mg/kg, po; format: ADME, organism-based, Canis lupus familiaris; set-up: time < 24 hr, dose 1 mg/kg, route po; details: in vivo
[42] = tested on: MCF7; experiment: Antitumor activity against human MCF7 cells xenografted in mouse assessed as tumor growth inhibition at 20 mg/kg, po administered once daily for 21 days; format: functional; details: MCF7, 504 h, time 21 day, read-out: TGI
[43] = target: Cytochrome P450 2C9 (Homo sapiens, UniProt P11712); experiment: Inhibition of CYP2C9 (unknown origin); format: ADME
[44] = target: Cytochrome P450 2D6 (Homo sapiens, UniProt P10635); experiment: Inhibition of CYP2D6 (unknown origin); format: ADME
[45] = AUC (0 to 24 hrs) in Sprague-Dawley rat at 1 mg/kg, iv; format: ADME, organism-based; set-up: time < 24 hr, dose 1 mg/kg, route iv; details: in vivo
[46] = Genotoxicity in Salmonella typhimurium by Ames test; format: toxicity; details: salmonella enterica subsp. enterica serovar typhimurium

Sequence of Cytochrome P450 2C19 (P33261 whole entry): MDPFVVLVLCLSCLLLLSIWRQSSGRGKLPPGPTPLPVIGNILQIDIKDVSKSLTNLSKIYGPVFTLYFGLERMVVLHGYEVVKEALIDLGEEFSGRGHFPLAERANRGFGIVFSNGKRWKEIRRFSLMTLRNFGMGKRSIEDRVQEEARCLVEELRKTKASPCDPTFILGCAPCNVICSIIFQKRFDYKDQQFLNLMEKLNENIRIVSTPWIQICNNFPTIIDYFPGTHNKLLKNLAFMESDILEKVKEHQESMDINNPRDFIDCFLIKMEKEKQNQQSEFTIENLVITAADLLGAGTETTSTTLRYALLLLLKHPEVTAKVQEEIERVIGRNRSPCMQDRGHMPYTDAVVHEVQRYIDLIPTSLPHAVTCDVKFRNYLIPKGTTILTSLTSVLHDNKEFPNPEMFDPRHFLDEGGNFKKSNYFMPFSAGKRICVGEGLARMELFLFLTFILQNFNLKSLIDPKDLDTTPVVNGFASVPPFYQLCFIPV
Sequence of Cytochrome P450 2D6 (P10635 whole entry): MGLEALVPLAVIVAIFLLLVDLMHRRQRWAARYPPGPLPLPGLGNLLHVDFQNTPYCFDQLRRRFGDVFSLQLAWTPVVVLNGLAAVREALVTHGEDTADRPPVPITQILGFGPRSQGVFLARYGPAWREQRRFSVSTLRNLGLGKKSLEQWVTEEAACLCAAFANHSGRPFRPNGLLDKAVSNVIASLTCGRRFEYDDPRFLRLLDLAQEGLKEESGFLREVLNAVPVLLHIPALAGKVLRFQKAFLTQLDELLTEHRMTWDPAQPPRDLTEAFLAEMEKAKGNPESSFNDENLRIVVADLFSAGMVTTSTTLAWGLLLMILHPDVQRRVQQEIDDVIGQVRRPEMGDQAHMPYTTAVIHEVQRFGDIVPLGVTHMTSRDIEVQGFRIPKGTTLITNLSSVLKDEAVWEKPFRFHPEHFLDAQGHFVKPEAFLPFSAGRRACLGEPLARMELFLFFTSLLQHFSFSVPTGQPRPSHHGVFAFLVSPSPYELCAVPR
Sequence of Cytochrome P450 2C9 (P11712 whole entry): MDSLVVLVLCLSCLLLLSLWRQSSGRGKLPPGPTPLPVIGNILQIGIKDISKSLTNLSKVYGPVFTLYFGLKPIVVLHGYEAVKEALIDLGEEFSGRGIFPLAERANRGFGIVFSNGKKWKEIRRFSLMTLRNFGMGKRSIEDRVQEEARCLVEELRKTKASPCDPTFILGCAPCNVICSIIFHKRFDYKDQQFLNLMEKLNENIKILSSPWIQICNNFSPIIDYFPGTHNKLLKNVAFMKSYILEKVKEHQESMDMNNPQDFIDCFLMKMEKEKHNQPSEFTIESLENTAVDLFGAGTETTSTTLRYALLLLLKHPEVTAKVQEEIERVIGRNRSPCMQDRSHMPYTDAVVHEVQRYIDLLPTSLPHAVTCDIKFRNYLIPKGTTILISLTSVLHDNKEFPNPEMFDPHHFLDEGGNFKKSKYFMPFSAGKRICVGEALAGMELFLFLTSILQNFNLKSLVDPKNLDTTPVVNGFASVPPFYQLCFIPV
Sequence of Cytochrome P450 3A4 (P08684 whole entry): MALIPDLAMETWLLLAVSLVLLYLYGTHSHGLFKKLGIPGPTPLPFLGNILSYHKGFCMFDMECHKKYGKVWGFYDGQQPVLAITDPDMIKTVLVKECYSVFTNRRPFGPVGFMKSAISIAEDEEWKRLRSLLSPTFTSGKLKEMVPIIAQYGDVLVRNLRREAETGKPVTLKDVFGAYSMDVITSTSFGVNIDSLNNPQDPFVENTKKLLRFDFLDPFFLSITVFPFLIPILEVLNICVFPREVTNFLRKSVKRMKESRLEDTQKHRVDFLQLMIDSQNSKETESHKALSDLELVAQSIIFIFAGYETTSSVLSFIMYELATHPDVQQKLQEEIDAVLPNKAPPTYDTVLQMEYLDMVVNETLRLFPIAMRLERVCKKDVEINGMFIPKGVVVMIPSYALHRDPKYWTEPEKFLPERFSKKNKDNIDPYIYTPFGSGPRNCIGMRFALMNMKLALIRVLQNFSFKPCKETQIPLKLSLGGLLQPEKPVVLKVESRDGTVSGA

## CC/C(=C(/c1ccc(/C=C/C(=O)O)cc1)c1[nH]c2ccccc2c1C#N)c1ccc(F)cc1Cl
[1]
  IC50: 0.23 nM
[2]
  AUC(0-t) at 24 h: 0.049 µM·h
[3]
  Vd: 4.28 L/kg
[4]
  EC50: 2.6 nM
[5]
  clearance: 104 mL/min/kg
[6]
  IC50: 4.85 nM
[7]
  Cmax: 35 nM
[8]
  bioavailability: 6.21%

## CC/C(=C(/c1ccc(/C=C/C(=O)O)cc1)c1[nH]c2ccccc2c1Cl)c1ccccc1C(F)(F)F
[1]
  IC50: 0.82 nM
[4]
  EC50: 9.95 nM
[6]
  IC50: 13 nM

## C[C@]12CC[C@@H]3c4ccc(O)cc4C[C@@H](CCCCCCCCC[S+]([O-])CCCC(F)(F)C(F)(F)F)[C@H]3[C@@H]1CC[C@@H]2O (stereo not given in full) [FULVESTRANT]
[9]
  TGI: 66%

## CC/C(=C(/c1ccc(/C=C/C(=O)O)cc1)c1[nH]c2ccccc2c1Cl)c1ccc(Cl)cc1C#N
[10]
  Activity: Non-Toxic
[1]
  IC50: 0.23 nM
[2]
  AUC(0-t) at 24 h: 0.883 µM·h
[3]
  Vd: 4.48 L/kg
[4]
  EC50: 0.735 nM
[5]
  clearance: 29.7 mL/min/kg
[6]
  IC50: 0.97 nM
[7]
  Cmax: 246 nM
[8]
  bioavailability: 33.7%

## CC/C(=C(/c1ccc(/C=C/C(=O)O)cc1)c1cc2ccccc2[nH]1)c1ccc(F)cc1Cl
[1]
  IC50: 1.6 nM
[4]
  EC50: 39 nM
[6]
  IC50: 21 nM

## CC/C(=C(/c1ccc(/C=C/C(=O)O)cc1)c1[nH]c2ccccc2c1Cl)c1cc(Cl)sc1Cl
[1]
  IC50: 1.79 nM
[4]
  EC50: 5.13 nM
[6]
  IC50: 20 nM

## CC/C(=C(/c1ccc(/C=C/C(=O)O)cc1)c1[nH]c2ccccc2c1Cl)c1ccsc1C#N
[1]
  IC50: 0.18 nM
[4]
  EC50: 2.25 nM
[6]
  IC50: 7.56 nM

## CC/C(=C(/c1ccc(/C=C/C(=O)O)cc1)c1[nH]c2ccccc2c1Br)c1ccc(F)cc1Cl
[1]
  IC50: 0.66 nM
[4]
  EC50: 2.44 nM
[6]
  IC50: 8.53 nM

## CC/C(=C(/c1ccc(/C=C/C(=O)O)cc1)c1ccc2[nH]ncc2c1)c1ccc(F)cc1Cl [BRILANESTRANT]
[11]
  inhibition (INH): 65%

## CC/C(=C(/c1ccc(/C=C/C(=O)O)cc1)c1[nH]c2ccccc2c1C)c1ccc(F)cc1Cl
[4]
  EC50: 1.26 nM
[6]
  IC50: 4.78 nM

## CC/C(=C(/c1ccc(/C=C/C(=O)O)cc1)c1[nH]c2ccccc2c1Cl)c1ccc(F)cc1Cl
[10]
  Activity: Non-Toxic
[12]
  inhibition: Dde
[1]
  IC50: 0.99 nM
[13]
  bioavailability: 56%
[14]
  IC50: 7000 nM
[15]
  Vd: 0.42 L/kg
[16]
  clearance: 7.7 mL/min/kg
[17]
  IC50: 10100 nM
[18]
  bioavailability: 55%
[19]
  Papp A→B: 0.94 ×10⁻⁶ cm/s
[2]; mouse, 24 h
  AUC: 15.329 µM·h
[20]
  AUC(0-t) at 24 h: 43.8 µM·h
[3]
  Vd: 0.5 L/kg
[4]
  EC50: 2.29 nM
[21]
  Activity: Non-Toxic
[22]
  Cmax: 381 nM
[23]
  IC50: 7700 nM
[24]
  C0: 2610 nM
[25]
  inhibition in vivo at 200 mg/kg: 91%
[26]
  fraction unbound: 0.051
[27]
  Activity: Non-Toxic
[28]
  Vd: 2 L/kg
[29]
  Activity: Non-Toxic
[30]
  C0: 12800 nM
[31]
  Papp B→A: 1.25 ×10⁻⁶ cm/s
[32]
  inhibition in vivo at 60 mg/kg: 113%
[33]
  clearance: 0.84 mL/min/kg
[34]
  hepatocyte CLint: 11.1 µL/min/1e6 cells
[35]
  AUC(0-t) at 24 h: 2.7 µM·h
[36]
  Cmax: 2550 nM
[37]
  hepatocyte CLint: 8.6 µL/min/1e6 cells
[38]
  efflux ratio: 1.32
[11]
  inhibition (INH): 94%
[39]
  hepatocyte CLint: 15.2 µL/min/1e6 cells
[40]
  hepatocyte CLint: 9.8 µL/min/1e6 cells
[41]
  AUC(0-t) at 24 h: 24.2 µM·h
[6]
  IC50: 3.76 nM
[42]
  inhibition in vivo at 20 mg/kg: 104%
[43]
  IC50: 5100 nM
[7]
  Cmax: 1870 nM
[44]
  IC50: 14300 nM
[45]
  AUC(0-t) at 24 h: 4.82 µM·h
[8]; mouse, po, 2.5 mg/kg
  F: 60.1%
[46]
  Activity: Non-Toxic
